According to patent US20050107270A1, “Alkyl ethanolamines for the control of mycobacteria in functional fluid” (priority 2003, published 2005):

Tests used:
Type in all cases: cell-based
[1] = test system: Mycobacterium smegmatis (ATCC # 19420); assay: Mycobacterium smegmatis growth control, optical absorbance at 660 nm (Example 2); conditions: 48 hours
Description: The impact of these N-alkyl alkanolamines on the control of the bacterial species Mycobacterium smegmatis (ATCC # 19420) is given in the Table 2. Bacterial concentration in the experimental media was monitored indirectly via optical absorbance at 660 nm. The values reported are end-point optical densities in milliOD units after 48 hours. The media consisted of a standardized solution of clear nutrient broth (Middlebrook 7H10 with OADC supplement), amine, buffer (Tris) and water. The pH was adjusted initially to 8.5 with Tris buffer. The first column in the Table gives the amine concentration in parts per million by weight. The final two columns give data for cells that also contained 2 grams per liter of boric acid. In all cases, the values are averages of at least three replicate runs. The final row of Table 2 gives an estimate of the concentration range in which the amine in question starts to inhibit the growth of this bacterial species (minimum inhibitor concentration MIC).

[2] = test system: Mycobacterium marinum (ATCC # 927); assay: Mycobacterium marinum growth control, optical absorbance at 660 nm (Example 3); conditions: 72 hours
Description: The impact of these N-alkyl alkanolamines on the control of the bacterial species Mycobacterium marinum (ATCC # 927) is given in Table 3. Bacterial concentration in the experimental media was monitored indirectly via optical absorbance at 660 nm. The values reported are end-point optical densities in milliOD units after 72 hours. The media consisted of a standardized solution of clear nutrient broth (Middlebrook 7H 10 with OADC supplement), amine, buffer (Tris) and water. The pH was adjusted initially to 8.5 with Tris buffer. The first column in Table 3 gives the amine concentration in parts per million by weight. In all cases, the values are averages of at least three replicates. The final row of Table 3 gives an estimate of the concentration range in which the amine in question starts to inhibit the growth of this bacterial species (minimum inhibitor concentration MIC).

[3] = test system: Mycobacterium smegmatis (ATCC # 19420); assay: Mycobacterium smegmatis growth control, optical absorbance at 590 nm with tetrazolium dye (Example 1); conditions: compared with AMP (2-amino-2-methyl-1-propanol)
[4] = with 2 grams per liter of boric acid

| SMILES | MIC (minimum inhibitor concentration), estimated concentration range in which the amine starts to inhibit growth ([1]; no boric acid) | MIC (minimum inhibitor concentration), estimated concentration range in which the amine starts to inhibit growth [2] | MIC (minimum inhibitor concentration), estimated concentration range in which the amine starts to inhibit growth [1, 4] | effectiveness against Mycobacteria, in words [3] |
| --- | --- | --- | --- | --- |
| CCCCCCCCN(CCO)CCO [ODEA, Octyldiethanolamine] | 500-1000 ppm | 1200-2000 ppm | – | – |
| CCCCCCCCNCCO [OAE, octylaminoethanol] | <500 ppm | 1200-2000 ppm | <500 ppm | markedly more effective than AMP |
| C1CCC(NC2CCCCC2)CC1 [DCHA, Dicyclohexylamine, reference compound] | 1500-2000 ppm | >4000 ppm | 1000-2000 ppm | – |
| CCCCNCCO [BAE, butylaminoethanol] | – | >4000 ppm | – | – |
